Seven compounds from PubChem BioAssay (NCI) can be followed below.

Among the test systems are TK-10 renal; HCC-2998 colon; LOX IMVI melanoma; UACC-257 melanoma; OVCAR-3 ovarian; HS 578T breast; KM12 colon; A498 renal; UACC-62 melanoma; MALME-3M melanoma.
What all share (assay): inhibition of tumour cell growth, NCI panel, 48 h

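Exposure lasted 48 hours, with cells grown in 96-well plates and compounds tested at five concentrations. GI50 = concentration required for 50% inhibition of growth. At the TGI there is no net growth.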

With `Cc1nc(/N=C(\N)NC(=O)Nc2ccccc2Cl)sc1C`, the GI50 in the assay with TK-10 renal is 1.84 µM; in the assay on HCC-2998 colon it was 1.25 µM; with LOX IMVI melanoma it was 0.533 µM; in the assay on UACC-257 melanoma it was 1.44 µM; with OVCAR-3 ovarian, 0.299 µM; in the assay with HS 578T breast, 0.548 µM. The GI50 was 0.405 µM with KM12 colon, 0.249 µM in the assay with A498 renal, 0.488 µM in the assay on UACC-62 melanoma and 0.643 µM with MALME-3M melanoma. In addition, the TGI with TK-10 renal was 6.41 µM; in the assay on HCC-2998 colon, more than 100 µM; with LOX IMVI melanoma it was more than 100 µM; with UACC-257 melanoma, more than 100 µM; in the assay with OVCAR-3 ovarian, 1.28 µM; in the assay with HS 578T breast, 5.55 µM. Besides, the TGI in the assay with KM12 colon was more than 100 µM; with A498 renal, 1.1 µM; in the assay with UACC-62 melanoma, more than 100 µM; with MALME-3M melanoma it was 4.79 µM.

On to `O=C1c2ccccc2-c2c1c1ccccc1c(=O)n2CCCN1CCN(CCCn2c3c(c4ccccc4c2=O)C(=O)c2ccccc2-3)CC1`, for which the GI50 with TK-10 renal was 22.7 µM; with HCC-2998 colon it was more than 100 µM; with LOX IMVI melanoma, more than 88.3 µM; with UACC-257 melanoma, more than 100 µM; in the assay on OVCAR-3 ovarian it was more than 100 µM; in the assay on HS 578T breast, more than 100 µM. The GI50 is more than 100 µM in the assay with KM12 colon, more than 55.3 µM with A498 renal, more than 100 µM with UACC-62 melanoma and more than 57.6 µM with MALME-3M melanoma. Moreover, the TGI in the assay on TK-10 renal was more than 70.8 µM; in the assay on HCC-2998 colon, more than 100 µM; with LOX IMVI melanoma, more than 100 µM; with UACC-257 melanoma, more than 100 µM; in the assay on OVCAR-3 ovarian it was more than 100 µM; with HS 578T breast it was more than 100 µM. The TGI in the assay with KM12 colon, in the assay with A498 renal, in the assay with UACC-62 melanoma and in the assay with MALME-3M melanoma was more than 100 µM each time.

In the case of `O=S1(=O)CS(=O)(=O)OCCCO1`, the TGI with TK-10 renal, in the assay on HCC-2998 colon, in the assay with LOX IMVI melanoma, in the assay with UACC-257 melanoma, in the assay with OVCAR-3 ovarian and in the assay with HS 578T breast was more than 100 µM in each case. For the same compound, the TGI with KM12 colon, with A498 renal, in the assay on UACC-62 melanoma and in the assay with MALME-3M melanoma was more than 100 µM each time.

Turning to `CC(=O)OC[C@]12CC[C@@H]([C@@H](C)C(N)=O)[C@@H]1[C@H]1CC[C@@H]3[C@@]4(C)CC[C@H](OC(C)=O)C(C)(C)[C@@H]4CC[C@@]3(C)[C@]1(C)CC2`, the GI50 in the assay with TK-10 renal is 14.7 µM; with HCC-2998 colon, 10.4 µM; in the assay on LOX IMVI melanoma, 10.2 µM; with UACC-257 melanoma, 4.83 µM; in the assay on OVCAR-3 ovarian, 3.95 µM; with HS 578T breast, 12.4 µM. Moreover, the GI50 with KM12 colon is 3.86 µM; in the assay on A498 renal it was 12.8 µM; in the assay with UACC-62 melanoma, 5.46 µM; with MALME-3M melanoma, 10.5 µM. The TGI in the assay with TK-10 renal was found to be 39.8 µM; in the assay with HCC-2998 colon, 26.1 µM; in the assay with LOX IMVI melanoma, 24.4 µM; in the assay on UACC-257 melanoma, 22.7 µM; with OVCAR-3 ovarian, 13.3 µM; in the assay with HS 578T breast, 38.6 µM. Further, the TGI in the assay on KM12 colon is 15.8 µM; in the assay on A498 renal, 25.6 µM; in the assay on UACC-62 melanoma, 19.5 µM; with MALME-3M melanoma, 24.2 µM.

For `CC(=O)OCC1OC(OC2=C(CC=C(Cl)Cl)C(=O)c3ccccc3C2=O)C(OC(C)=O)C(OC(C)=O)C1OC(C)=O` (stereo not given), the GI50 in the assay on TK-10 renal is 9.61 µM; with HCC-2998 colon, 6.96 µM; in the assay with LOX IMVI melanoma, 1.71 µM; in the assay with UACC-257 melanoma, 8.45 µM; in the assay on OVCAR-3 ovarian it was 2.27 µM; in the assay on HS 578T breast it was 3.98 µM. Further, the GI50 in the assay on KM12 colon was 3.26 µM; with A498 renal it was 3.32 µM; with UACC-62 melanoma, 2.85 µM; with MALME-3M melanoma it was 2.66 µM. Moreover, the TGI in the assay on TK-10 renal stood at 21.5 µM; with HCC-2998 colon, 20.9 µM; in the assay with LOX IMVI melanoma it was 3.56 µM; in the assay with UACC-257 melanoma it was 21.4 µM; in the assay on OVCAR-3 ovarian, 4.88 µM; in the assay on HS 578T breast, 32.2 µM. Further, the TGI in the assay with KM12 colon came out at 10.1 µM; in the assay on A498 renal it was 20 µM; with UACC-62 melanoma, 11.2 µM; in the assay on MALME-3M melanoma, 5.83 µM.

In the case of `COc1c(CNC(=O)CCl)cc2[nH]c(C)cc2c1CNC(=O)CCl`, the GI50 in the assay on TK-10 renal is 9.17 µM; with HCC-2998 colon it was 13.2 µM; in the assay with LOX IMVI melanoma it was 3.17 µM; with UACC-257 melanoma, 6.8 µM; in the assay on OVCAR-3 ovarian, 3.41 µM; with HS 578T breast, 4.97 µM. Moreover, the GI50 is 6.08 µM in the assay with KM12 colon, 4.29 µM in the assay on A498 renal, 1.28 µM with UACC-62 melanoma and 16.1 µM in the assay with MALME-3M melanoma. The TGI with TK-10 renal turned out to be 56.7 µM; with HCC-2998 colon it was 30.4 µM; with LOX IMVI melanoma, 31.8 µM; in the assay on UACC-257 melanoma it was 36.5 µM; in the assay with OVCAR-3 ovarian, 13 µM; in the assay on HS 578T breast, 76.8 µM. The TGI in the assay with KM12 colon came to 19.4 µM; with A498 renal, 19.1 µM; in the assay on UACC-62 melanoma, 4.11 µM; in the assay on MALME-3M melanoma, 50.3 µM.

On to `C/C(=C\CCc1ccoc1)CC/C=C(\C)CCCN1CCC(CO)CC1`, for which the GI50 in the assay on TK-10 renal was 2.41 µM; with HCC-2998 colon, 2.1 µM; with LOX IMVI melanoma, 1.81 µM; with UACC-257 melanoma it was 2.16 µM; in the assay with OVCAR-3 ovarian it was 3.78 µM; in the assay on HS 578T breast, 2.6 µM. For the same compound, the GI50 in the assay on KM12 colon is 2.45 µM; in the assay with A498 renal, 1.96 µM; with UACC-62 melanoma it was 1.77 µM; with MALME-3M melanoma, 1.79 µM. Besides, the TGI with TK-10 renal turned out to be 6.54 µM; in the assay with HCC-2998 colon, 4.03 µM; in the assay with LOX IMVI melanoma, 3.47 µM; with UACC-257 melanoma it was 5.12 µM; with OVCAR-3 ovarian, 13.7 µM; with HS 578T breast, 8.08 µM. The TGI in the assay on KM12 colon was determined as 5.41 µM; in the assay with A498 renal, 5.96 µM; in the assay on UACC-62 melanoma it was 3.74 µM; in the assay with MALME-3M melanoma, 3.52 µM.
